Measured values taken from PubChem BioAssay (NCI).
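48-hour exposure; five concentrations; linearly interpolated endpoints. TGI denotes the concentration required for complete inhibition of growth.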

Assays:
Test in all cases: DTP human tumour cell line panel, 48 h
EKVX NSCLC = system: EKVX NSCLC
NCI/ADR-RES ovarian = system: NCI/ADR-RES ovarian
BT-549 breast = system: BT-549 breast
HCT-116 colon = system: HCT-116 colon
HL-60(TB) leukemia = system: HL-60(TB) leukemia
SF-539 CNS = system: SF-539 CNS
CAKI-1 renal = system: CAKI-1 renal
HS 578T breast = system: HS 578T breast
NCI-H23 lung = system: NCI-H23 lung
HT29 colon = system: HT29 colon
KM12 colon = system: KM12 colon
UACC-257 melanoma = system: UACC-257 melanoma
MDA-N = system: MDA-N
A549 NSCLC = system: A549 NSCLC
SNB-19 CNS = system: SNB-19 CNS
ACHN renal = system: ACHN renal
A498 renal = system: A498 renal
786-0 renal = system: 786-0 renal
MDA-MB-231 breast = system: MDA-MB-231 breast
SF-268 CNS = system: SF-268 CNS
NCI-H226 lung = system: NCI-H226 lung
CCRF-CEM leukemia = system: CCRF-CEM leukemia
SN12C renal = system: SN12C renal
UO-31 renal = system: UO-31 renal
HOP-62 NSCLC = system: HOP-62 NSCLC
COLO 205 colon = system: COLO 205 colon
RPMI-8226 leukemia = system: RPMI-8226 leukemia
T-47D breast = system: T-47D breast
SK-MEL-5 melanoma = system: SK-MEL-5 melanoma
OVCAR-5 ovarian = system: OVCAR-5 ovarian
HCT-15 colon = system: HCT-15 colon
OVCAR-3 ovarian = system: OVCAR-3 ovarian
OVCAR-8 ovarian = system: OVCAR-8 ovarian
DU-145 prostate = system: DU-145 prostate
IGROV1 ovarian = system: IGROV1 ovarian
PC-3 prostate = system: PC-3 prostate
M14 melanoma = system: M14 melanoma
SK-MEL-2 melanoma = system: SK-MEL-2 melanoma
UACC-62 melanoma = system: UACC-62 melanoma
MCF7 breast = system: MCF7 breast
SF-295 CNS = system: SF-295 CNS
SNB-75 CNS = system: SNB-75 CNS
TK-10 renal = system: TK-10 renal
MOLT-4 leukemia = system: MOLT-4 leukemia
NCI-H460 lung = system: NCI-H460 lung
K-562 leukemia = system: K-562 leukemia
MALME-3M melanoma = system: MALME-3M melanoma
HOP-92 NSCLC = system: HOP-92 NSCLC
NCI-H522 lung = system: NCI-H522 lung
OVCAR-4 ovarian = system: OVCAR-4 ovarian
SR leukemia = system: SR leukemia
SK-MEL-28 melanoma = system: SK-MEL-28 melanoma
MDA-MB-435 = system: MDA-MB-435
U251 CNS = system: U251 CNS
SW-620 colon = system: SW-620 colon
LOX IMVI melanoma = system: LOX IMVI melanoma
SK-OV-3 ovarian = system: SK-OV-3 ovarian

`CCOC(=O)c1c(NS(=O)(=O)c2ccc(C)cc2)sc2c1CCCC2` gave a TGI (EKVX NSCLC) of 98.7 µM, a TGI (NCI/ADR-RES ovarian) of over 100 µM and a TGI (BT-549 breast) of over 100 µM. It also gave a TGI (HCT-116 colon) of 73 µM, a TGI (HL-60(TB) leukemia) of over 100 µM and a TGI (SF-539 CNS) of over 100 µM. The TGI (CAKI-1 renal) was over 100 µM, the TGI (HS 578T breast) was over 100 µM and the TGI (NCI-H23 lung) was 54 µM. For the same molecule, the TGI (HT29 colon) was 47.6 µM, the TGI (KM12 colon) was 93.8 µM and the TGI (UACC-257 melanoma) was over 100 µM. The TGI (MDA-N) was over 100 µM, the TGI (A549 NSCLC) was over 100 µM and the TGI (SNB-19 CNS) was over 100 µM. For the same molecule, the TGI (ACHN renal) was over 100 µM, the TGI (A498 renal) was over 100 µM and the TGI (786-0 renal) was over 100 µM. It also gave a TGI (MDA-MB-231 breast) of 72.8 µM, a TGI (SF-268 CNS) of over 100 µM and a TGI (NCI-H226 lung) of over 100 µM. For the same molecule, the TGI (CCRF-CEM leukemia) was over 100 µM, the TGI (SN12C renal) was over 100 µM and the TGI (UO-31 renal) was 72.7 µM. The TGI (HOP-62 NSCLC) was 60.2 µM, the TGI (COLO 205 colon) was 37.9 µM and the TGI (RPMI-8226 leukemia) was 45.9 µM. For the same molecule, the TGI (T-47D breast) was over 100 µM, the TGI (SK-MEL-5 melanoma) was over 100 µM and the TGI (OVCAR-5 ovarian) was over 100 µM. The TGI (HCT-15 colon) was 42.1 µM, the TGI (OVCAR-3 ovarian) was 47.5 µM and the TGI (OVCAR-8 ovarian) was over 100 µM. For the same molecule, the TGI (DU-145 prostate) was over 100 µM, the TGI (IGROV1 ovarian) was over 100 µM and the TGI (PC-3 prostate) was over 100 µM. The TGI (M14 melanoma) was over 100 µM, the TGI (SK-MEL-2 melanoma) was 54.8 µM and the TGI (UACC-62 melanoma) was 56.5 µM. For the same molecule, the TGI (MCF7 breast) was over 100 µM, the TGI (SF-295 CNS) was over 100 µM and the TGI (SNB-75 CNS) was 66.7 µM. The TGI (TK-10 renal) was over 100 µM, the TGI (MOLT-4 leukemia) was over 100 µM and the TGI (NCI-H460 lung) was 78.8 µM. It also gave a TGI (K-562 leukemia) of over 100 µM.

`CC(=O)OCC1OC(N2C(=O)NC(=O)C3C=C4CCCCC4=CC32)CC1OC(C)=O` (stereo not drawn) showed a TGI (EKVX NSCLC) of over 100 µM, a TGI (NCI/ADR-RES ovarian) of over 100 µM and a TGI (MALME-3M melanoma) of over 100 µM. It also gave a TGI (HOP-92 NSCLC) of over 100 µM, a TGI (BT-549 breast) of over 100 µM and a TGI (HCT-116 colon) of over 100 µM. It also gave a TGI (HL-60(TB) leukemia) of over 100 µM, a TGI (SF-539 CNS) of over 100 µM and a TGI (HS 578T breast) of over 100 µM. For the same molecule, the TGI (NCI-H522 lung) was over 100 µM, the TGI (HT29 colon) was over 100 µM and the TGI (KM12 colon) was over 100 µM. It also gave a TGI (OVCAR-4 ovarian) of over 100 µM, a TGI (UACC-257 melanoma) of over 100 µM and a TGI (SR leukemia) of over 100 µM. For the same molecule, the TGI (MDA-N) was over 100 µM, the TGI (A549 NSCLC) was over 100 µM and the TGI (SK-MEL-28 melanoma) was over 100 µM. For the same molecule, the TGI (SNB-19 CNS) was over 100 µM, the TGI (ACHN renal) was over 100 µM and the TGI (A498 renal) was over 100 µM. For the same molecule, the TGI (786-0 renal) was over 100 µM, the TGI (MDA-MB-231 breast) was over 100 µM and the TGI (MDA-MB-435) was over 100 µM. The TGI (SF-268 CNS) was over 100 µM, the TGI (NCI-H226 lung) was over 100 µM and the TGI (U251 CNS) was over 100 µM. It also gave a TGI (SN12C renal) of over 100 µM, a TGI (UO-31 renal) of over 100 µM and a TGI (HOP-62 NSCLC) of over 100 µM. The TGI (RPMI-8226 leukemia) was over 100 µM, the TGI (T-47D breast) was over 100 µM and the TGI (OVCAR-5 ovarian) was over 100 µM. For the same molecule, the TGI (SW-620 colon) was over 100 µM, the TGI (HCT-15 colon) was over 100 µM and the TGI (OVCAR-3 ovarian) was over 100 µM. For the same molecule, the TGI (OVCAR-8 ovarian) was over 100 µM, the TGI (DU-145 prostate) was over 100 µM and the TGI (IGROV1 ovarian) was over 100 µM. For the same molecule, the TGI (PC-3 prostate) was over 100 µM, the TGI (M14 melanoma) was over 100 µM and the TGI (LOX IMVI melanoma) was over 100 µM. It also gave a TGI (SK-MEL-2 melanoma) of over 100 µM, a TGI (UACC-62 melanoma) of over 100 µM and a TGI (MCF7 breast) of over 100 µM. The TGI (SF-295 CNS) was over 100 µM, the TGI (SNB-75 CNS) was over 100 µM and the TGI (TK-10 renal) was over 100 µM. The TGI (MOLT-4 leukemia) was over 100 µM, the TGI (NCI-H460 lung) was over 100 µM and the TGI (K-562 leukemia) was over 100 µM. For the same molecule, the TGI (SK-OV-3 ovarian) was over 100 µM.
